Assay results published in paper PMC10525795, “Pharmacokinetics of Four Tyrosine Kinase Inhibitors in Adult and Paediatric Chronic Myeloid Leukaemia Patients” (Biomedicines, 2023).
Like-named read-outs stand apart in the source and are kept apart here. Blank lines part the entries; values can stand above or below the molecule they belong to.

Columns and labels:
[1] = cited from earlier work
[2] = cited from earlier work; remark: listed apart in the source
BCR–-ABL kinase = conditions: higher than imatinib; cited from earlier work
[3] = Plasma drug concentration at end of dosing interval (Ctrough), HPLC–UV, patients with CML; conditions: for Plasma concentrations, median (IQR): all sampled patients with CML on the drug
[4] = cited from earlier work; remark: listed apart in the source
p-glycoprotein (PGP) = tested on: p-glycoprotein (PGP); set-up: method as in PMID 28256516; conditions: cited from earlier work
[5] = tested on: breast-cancer resistance protein (BRCP); set-up: method as in PMID 28256516; conditions: cited from earlier work
[6] = Cerebrospinal fluid drug concentration at end of dosing interval (Ctrough), HPLC–UV, patients with CML; assay type: in vivo, human; conditions: for Cerebrospinal fluid concentrations, median (IQR): all sampled patients with CML on the drug

Compound: Cc1ccc(NC(=O)c2ccc(CN3CCN(C)CC3)cc2)cc1Nc1nccc(-c2cccnc2)n1 [Imatinib]
Blood–brain barrier crossing [1]: ability to cross the blood–brain barrier
Time of plasma peak ([2]; oral): 2 to 4 h

Plasma concentrations, median (IQR) [3]: 0.19 (0.16–0.22) µg/mL
Mean plasma concentration ([3]; two adult male patients): 190 ng/mL
Compound: Cc1cn(-c2cc(NC(=O)c3ccc(C)c(Nc4nccc(-c5cccnc5)n4)c3)cc(C(F)(F)F)c2)cn1 [Nilotinib]
Average half-life [2]: approximately 15 h
Bioavailability ([2]; oral): approximately 30%
Time of concentration peak after administration ([2]; oral): 3 h
Strength of inhibition of tyrosine kinase protein's activity versus imatinib (BCR–-ABL kinase): 20–50 times

Compound: Cc1nc(Nc2ncc(C(=O)Nc3c(C)cccc3Cl)s2)cc(N2CCN(CCO)CC2)n1 [Dasatinib]
Blood–brain barrier crossing [1]: ability to cross the blood–brain barrier
Average half-life [2]: 1.3 to 5 h
Distribution volume [2]: > 3 L/kg
Time of concentration peak after administration ([2]; oral): 0.5 to 3 h
Patients with drug-related pulmonary hypertension ([4]; adults with CML who are imatinib-resistant/intolerant): 2%
Patients with drug-related pulmonary hypertension ([4]; newly diagnosed adults with CML): 5%
Substrate of PGP (p-glycoprotein (PGP)): substrate
Substrate of BCRP [5]: substrate
Median plasma concentration, adults ([3]; adult patients, N = 3): 0.4 µg/mL
Plasma concentrations, median (IQR) [3]: 0.06 (0.03–0.33) µg/mL
Plasma concentrations, median (IQR) ([3]; listed as dasatinib): 0.06 µg/mL
Median plasma concentration, paediatrics ([3]; paediatric patients, N = 36): 0.05 µg/mL
Cerebrospinal fluid concentrations, median (IQR) [6]: 0.11 (0.06–0.32) µg/mL
Cerebrospinal fluid concentrations, median (IQR) ([6]; listed as dasatinib): 0.11 µg/mL
Median CSF level, paediatrics ([6]; paediatric patients, N = 36): 0.11 µg/mL

Cerebrospinal fluid concentrations, median (IQR) [6]: 0.65 (0.18–1.65) µg/mL
Cerebrospinal fluid concentrations, median (IQR) ([6]; listed as ponatinib): 0.65 µg/mL
Compound: Cc1ccc(C(=O)Nc2ccc(CN3CCN(C)CC3)c(C(F)(F)F)c2)cc1C#Cc1cnc2cccnn12 [Ponatinib]
Half-life [2]: approximately 24 h
Time of peak concentration after administration ([2]; oral): ≤ 6 h
